Results taken from the supplement of paper PMC10307832.

How the values were obtained:
Experiment in all cases: relative viability (nuclei count vs DMSO), 5 days (fraction); higher = more cells survive
Sorafenib + Trametinib = compound: CNC(=O)c1cc(Oc2ccc(NC(=O)Nc3ccc(Cl)c(C(F)(F)F)c3)cc2)ccn1 [Sorafenib] + CC(=O)Nc1cccc(-n2c(=O)n(C3CC3)c(=O)c3c(Nc4ccc(I)cc4F)n(C)c(=O)c(C)c32)c1 [Trametinib] (partner 0.02 µM)
Summary of the method: (§1)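 Lung cancer cell lines were pin-tool dosed in 1536-well plates on the day after seeding, with either a lone drug or a fixed anchor-drug dose plus five library-drug doses (not always all listed) in √10 steps. Nuclei were counted on 4× images after 5 days. Relative viability is the ratio of treated-well to vehicle-well nuclei counts, with each value a median of duplicate plates.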

Sorafenib + Luminespib = compound: CNC(=O)c1cc(Oc2ccc(NC(=O)Nc3ccc(Cl)c(C(F)(F)F)c3)cc2)ccn1 [Sorafenib] + CCNC(=O)c1noc(-c2cc(C(C)C)c(O)cc2O)c1-c1ccc(CN2CCOCC2)cc1 [Luminespib] (partner 0.01 µM)
Summary of the method: as §1

Sorafenib + Lapatinib = compound: CNC(=O)c1cc(Oc2ccc(NC(=O)Nc3ccc(Cl)c(C(F)(F)F)c3)cc2)ccn1 [Sorafenib] + CS(=O)(=O)CCNCc1ccc(-c2ccc3ncnc(Nc4ccc(OCc5cccc(F)c5)c(Cl)c4)c3c2)o1 [Lapatinib] (partner 2 µM)
Summary of the method: as §1

Sorafenib + Alpelisib = compound: CNC(=O)c1cc(Oc2ccc(NC(=O)Nc3ccc(Cl)c(C(F)(F)F)c3)cc2)ccn1 [Sorafenib] + Cc1nc(NC(=O)N2CCC[C@H]2C(N)=O)sc1-c1ccnc(C(C)(C)C(F)(F)F)c1 [Alpelisib] (partner 2 µM)
Summary of the method: as §1

Sorafenib + Pemetrexed = compound: CNC(=O)c1cc(Oc2ccc(NC(=O)Nc3ccc(Cl)c(C(F)(F)F)c3)cc2)ccn1 [Sorafenib] + Nc1nc2[nH]cc(CCc3ccc(C(=O)N[C@@H](CCC(=O)O)C(=O)O)cc3)c2c(=O)[nH]1 [Pemetrexed] (partner 0.2 µM)
Summary of the method: as §1

Cell Line	relative viability (Sorafenib + Trametinib; first compound 0.08 µM)	relative viability (Sorafenib + Trametinib; first compound 0.253 µM)	relative viability (Sorafenib + Trametinib; first compound 2.53 µM)	relative viability (Sorafenib + Trametinib; first compound 8 µM)	relative viability (Sorafenib + Luminespib; first compound 0.08 µM)	relative viability (Sorafenib + Luminespib; first compound 0.253 µM)	relative viability (Sorafenib + Luminespib; first compound 8 µM)	relative viability (Sorafenib + Lapatinib; first compound 0.08 µM)	relative viability (Sorafenib + Lapatinib; first compound 0.253 µM)	relative viability (Sorafenib + Lapatinib; first compound 2.53 µM)	relative viability (Sorafenib + Lapatinib; first compound 8 µM)	relative viability (Sorafenib + Alpelisib; first compound 0.08 µM)	relative viability (Sorafenib + Alpelisib; first compound 0.253 µM)	relative viability (Sorafenib + Alpelisib; first compound 2.53 µM)	relative viability (Sorafenib + Alpelisib; first compound 8 µM)	relative viability (Sorafenib + Pemetrexed; first compound 0.08 µM)	relative viability (Sorafenib + Pemetrexed; first compound 0.253 µM)	relative viability (Sorafenib + Pemetrexed; first compound 2.53 µM)	relative viability (Sorafenib + Pemetrexed; first compound 8 µM)	relative viability (Sorafenib + Luminespib; first compound 2.53 µM)
NCI-H1915	0.322	0.289	0.204	0.125	0.848	0.678	0.751	0.932	0.879	0.943	0.951	0.998	0.922	0.909	1.07	0.423	0.45	0.433	0.504	–
NCI-H1944	0.384	0.436	0.367	0.253	0.697	0.634	0.552	0.881	0.763	0.912	0.796	0.882	0.909	1.01	0.706	0.697	0.557	0.735	0.438	–
NCI-H1975	0.526	0.32	0.291	0.242	0.426	0.201	0.153	1.04	0.835	1.02	0.448	0.643	0.789	0.77	0.323	0.3	0.285	0.294	0.209	0.24
NCI-H1993	0.515	0.521	0.529	0.506	0.921	0.489	0.543	0.893	0.782	–	0.78	0.684	0.7	0.666	0.674	0.566	0.597	0.528	0.43	0.999
NCI-H2009	0.339	0.282	0.204	0.159	1.03	0.868	0.476	0.884	0.812	0.968	0.47	1.22	–	1.03	0.842	1.02	0.909	0.83	0.959	0.915
NCI-H2023	0.686	0.539	0.459	0.112	0.828	0.761	0.136	–	0.738	0.82	0.244	0.659	0.603	0.613	0.438	0.267	0.252	0.226	0.121	0.826
NCI-H2085	0.643	0.464	0.43	0.391	0.483	0.414	0.448	–	0.761	0.858	0.717	0.998	0.878	0.882	0.777	1.02	0.98	1.15	0.762	0.424
NCI-H2087	0.19	0.233	0.199	0.15	0.192	0.183	0.123	0.958	0.711	1.06	0.611	0.88	0.81	0.924	0.341	0.694	0.622	0.61	0.239	0.236
NCI-H2126	0.581	0.541	0.623	0.589	0.981	–	0.864	0.766	0.642	0.808	0.792	0.788	0.743	0.855	–	0.763	0.672	0.681	0.706	0.882
NCI-H2170	0.896	0.805	0.99	0.804	0.527	0.707	0.592	0.279	0.294	0.349	0.39	0.792	0.843	0.865	0.754	0.258	0.278	0.27	0.208	0.706
NCI-H2228	0.802	0.377	0.356	0.266	0.181	0.178	0.105	1.23	0.936	0.985	0.627	0.863	0.753	0.694	0.64	0.361	0.323	0.244	0.31	0.154
NCI-H2347	0.3	0.308	0.266	0.314	0.625	0.433	0.62	0.945	0.83	0.965	0.968	1.2	0.89	–	1	0.442	0.398	0.425	0.413	0.763
NCI-H2405	0.784	0.461	0.413	0.324	0.868	0.705	0.446	1.26	0.967	1.09	0.784	1	0.857	0.627	0.423	1.12	0.902	1.13	0.982	0.79
NCI-H3122	0.234	0.208	0.176	0.129	0.11	0.105	0.044	1.05	0.987	1.02	1.01	0.799	0.971	0.79	0.409	0.209	0.194	0.222	0.167	0.0728
PC-3 [JPC-3]	–	0.712	0.773	0.718	0.67	0.687	0.637	0.499	0.439	0.502	0.537	1.07	0.987	1.08	1.12	1.11	0.856	1.34	1.2	0.717
PC-14	0.883	0.694	0.567	0.158	0.138	0.138	0.138	0.434	0.303	0.401	0.534	1	0.848	0.854	0.753	0.133	0.137	0.123	0.102	0.19
